# Measurements published in patent EP0603240B1, “SAFENING HERBICIDAL PYRAZOLYLSULFONYLUREAS” (priority 1991, dated 1993).
# Tests used:
# Assay type in all cases: in vivo
# corn [1] = assay: Example 19, Procedure II: Herbicide No. 1 + ERADICANE EXTRA with added antidotes
# Method: (§1) Containers were filled and compacted with a fumigated silt loam top soil to a depth of about 1.3 cm from the top of the container. A first container was designated as an untreated control, a second container was designated as a herbicide control, and a third container was designated as a herbicide + antidote test container. Each of the containers was seeded with a crop species. A measured amount of herbicide dispersed or dissolved in acetone was applied to a measured quantity of soil. To this same quantity of soil treated with herbicide, there was added a measured amount of antidote dispersed or dissolved in acetone. The quantity of soil treated with the herbicide and antidote was thoroughly mixed to incorporate the herbicide and antidote in the soil uniformly. The seed bed in the third container of soil was covered with the soil treated with the herbicide and antidote and the container was leveled. For each test series, the seed beds of the first and second containers were likewise covered by soil layers. the cover layer of the first container was not treated with herbicide or antidote.
# (§2) The containers were then placed on a bench in a greenhouse and sub-irrigated as required for the duration of the test. […] Plant response is measured in terms of percent injury. Antidote efficacy is indicated as the difference in plant injury by the herbicide(s) without the antidote and with the antidote.
# (§3) This procedure is the same as Procedure I, but modified in the manner that after incorporation of the chemicals (herbicide and antidote) the containers with the covered seedbed were treated with an initial overhead irrigation equivalent to 0.6 cm rainfall, then subsequently sub-irrigated as required on greenhouse benches.
# In the test reported in this example, the herbicidal composition was similar to that used in Example 16 in that Herbicide No. 1 was combined with EPTC (Herbicide No. 4) as a co-herbicide and the antidotes included Nos. 1, 2, 7, 13 and 15. However, in this test the EPTC was introduced as a formulation of ERADICANE (EPTC + the antidote R-25788, i.e., Antidote No. 1) at an application rate of 8.96 kg/ha. Thus, in this test two antidotes were present, viz. R-25788 and one of the auxilliary antidotes, No. 2, 13 and 15.
# The test reported in this example was performed in the same manner and with the same antidotes used in Example 18, the only difference being the substitution of the commercial herbicidal product ERADICANE® EXTRA for ERADICANE®. ERADICANE EXTRA is a formulation containing both an antidote, i.e., R-29148 (Antidote No. 5 herein), and an extender, dietholate.
# corn [2] = assay: Example 21, Procedure II: Herbicide No. 1 + SUTAN PLUS (butylate + antidote) with antidotes
# Method: as §1, §2, §3
# In this example, tests were conducted as in the preceding Examples 18-20, except here the co-herbicidal component was SUTAN® PLUS, a commercial product comprising as the active herbicidal ingredient the compound butylate (Herbicide No. 10) and an antidote […] (Antidote No. 1). Again, the antidotal compounds herein were Nos. 1, 2, 7, 13 and 15. Procedure II was used.
# [3] = system: Giant foxtail (Setaria fabergi); assay: Example 23, Procedure II: Antidote Nos. 15 and 17-21 against Herbicide No. 1, 13 days after application
# Method: as §1, §2, §3
# (§4) In other greenhouse tests, using Procedure II described above, the safening efficacy of Antidote Nos. 15 and 17-21 was evaluated against Herbicide No. 1 in corn in the presence of Giant foxtail (Setaria fabergi) and Velvetleaf (Abutilon theophrasti) as representative annual monocotyledonous and dicotyledonous weeds, respectively.
# (§5) Test results are shown in Tables 23A and 23B wherein the indicated plant inhibition represents the average of duplicate replications, with observations being made thirteen (13) days after application of the chemicals. Giant foxtail and Velvetleaf are represented by the symbols "GFT" and "VL", respectively. The data in Table 23A show the test results using the antidotes at 2.24 kg/ha, whereas in Table 23B, the antidotal rate was reduced to 0.56 kg/ha.
# corn [4] = assay: as above; conditions: 13 days after application
# Method: as §1, §2, §3, §4, §5
# [5] = system: velvetleaf (Abutilon theophrasti); assay: as above
# Method: as §1, §2, §3, §4, §5
# [6] = Herbicide No.1 0.56 kg/ha alone
# [7] = Herbicide No.1 1.12 kg/ha alone
# [8] = Table 23A, Herb. No. 1 0.14 Kg/Ha + antidote 2.24 Kg/ha
# [9] = Table 23A, Herb. No. 1 0.28 Kg/Ha + antidote 2.24 Kg/ha
# [10] = Table 23A, Herb. No. 1 0.56 Kg/Ha + antidote 2.24 Kg/ha
# [11] = Table 23A, Herb. No. 1 1.12 Kg/Ha + antidote 2.24 Kg/ha
# [12] = Table 23B, Herb. No. 1 0.14 Kg/Ha + antidote 0.56 Kg/ha
# [13] = Table 23B, Herb. No. 1 0.28 Kg/Ha + antidote 0.56 Kg/ha
# [14] = Table 23B, Herb. No. 1 0.56 Kg/Ha + antidote 0.56 Kg/ha
# [15] = Table 23B, Herb. No. 1 1.12 Kg/Ha + antidote 0.56 Kg/ha
SMILES,"% Inhibition GFT [3, 8]","% Inhibition GFT [3, 9]","% Inhibition GFT [3, 10]","% Inhibition GFT [3, 11]","% Inhibition GFT [3, 12]","% Inhibition GFT [3, 13]","% Inhibition GFT [3, 14]","% Inhibition GFT [3, 15]",% Inhibition Corn (corn [4]; [8]),% Inhibition Corn (corn [4]; [9]),% Inhibition Corn (corn [4]; [10]),% Inhibition Corn (corn [4]; [11]),% Inhibition Corn (corn [4]; [12]),% Inhibition Corn (corn [4]; [13]),% Inhibition Corn (corn [4]; [14]),% Inhibition Corn (corn [4]; [15]),"% Inhibition VL [5, 8]","% Inhibition VL [5, 9]","% Inhibition VL [5, 10]","% Inhibition VL [5, 11]",also measured
COC(=O)c1c(Cl)nn(C)c1S(=O)(=O)NC(=O)Nc1nc(OC)cc(OC)n1 [No.1],–,–,–,–,–,–,–,–,–,–,–,–,–,–,–,–,–,–,–,–,"% Injury Corn (corn [1]; Herbicide No.1 0.56 kg/ha + ERADICANE EXTRA 8.96 kg/ha, no added antidote): 30%; % Injury Corn (corn [1]; [6]): 20%; % Injury Corn (corn [1]; Herbicide No.1 1.12 kg/ha + ERADICANE EXTRA 8.96 kg/ha, no added antidote): 20%; % Injury Corn (corn [1]; [7]): 25%; % Injury Corn (corn [2]; Herbicide No.1 0.56 kg/ha + SUTAN + 8.96 kg/ha, no added antidote): 10%; % Injury Corn (corn [2]; [6]): 0%; % Injury Corn (corn [2]; Herbicide No.1 1.12 kg/ha + SUTAN + 8.96 kg/ha, no added antidote): 5%; % Injury Corn (corn [2]; [7]): 30%"
CCSC(=O)COC(c1ccccc1)c1ccccc1 [compound 21],10%,20%,35%,70%,20%,45%,50%,75%,0%,0%,5%,30%,0%,5%,20%,35%,85%,85%,95%,95%,"% Inhibition VL [5, 12]: 85%; % Inhibition VL [5, 13]: 90%; % Inhibition VL [5, 14]: 90%; % Inhibition VL [5, 15]: 95%"
COC(=O)COC(c1ccccc1)c1ccccc1 [compound 20],15%,35%,40%,65%,15%,20%,60%,75%,0%,0%,0%,15%,0%,5%,20%,40%,90%,90%,85%,90%,"% Inhibition VL [5, 12]: 90%; % Inhibition VL [5, 13]: 90%; % Inhibition VL [5, 14]: 90%; % Inhibition VL [5, 15]: 95%"
O=C(O)COC(c1ccccc1)c1ccccc1 [compound 18],15%,30%,65%,70%,15%,20%,60%,60%,0%,0%,10%,10%,5%,5%,20%,30%,90%,95%,95%,95%,"% Inhibition VL [5, 12]: 90%; % Inhibition VL [5, 13]: 95%; % Inhibition VL [5, 14]: 90%; % Inhibition VL [5, 15]: 95%"
O=C(O)COC(c1ccccc1)c1ccccc1 [compound 19],15%,30%,50%,70%,25%,40%,60%,65%,0%,0%,5%,15%,0%,5%,15%,40%,90%,85%,95%,95%,"% Inhibition VL [5, 12]: 85%; % Inhibition VL [5, 13]: 85%; % Inhibition VL [5, 14]: 90%; % Inhibition VL [5, 15]: 90%"
CC1COc2ccccc2N1C(=O)C(Cl)Cl (centres unmarked) [compound 17],25%,25%,60%,70%,15%,40%,55%,65%,0%,0%,15%,25%,0%,10%,20%,30%,95%,85%,95%,95%,"% Inhibition VL [5, 12]: 90%; % Inhibition VL [5, 13]: 90%; % Inhibition VL [5, 14]: 90%; % Inhibition VL [5, 15]: 95%"
